This note sets out measurements from US20070128217A1 (priority 2003, published 2007).

Assay [1] relates to antibodies in sera from SARS patients (sera 1a, 1b, 2, 6, 37, 62, London, SARS-yellow, SARS-green). It is filed as binding, human.
Assay [2] deals with control sera (pooled serum of ten healthy LUMC hospital workers; commercial negative donor pooled serum from the Dutch bloodbank). It is filed as binding, human.
Assay [3] has as its system rabbit serum obtained by immunizing a rabbit with the SARS-CoV strain Frankfurt 1. In kind it is binding. Set-up: Binding of a rabbit serum to linear peptides / Binding of a rabbit serum to looped peptides / Rabbit serum linear peptides / Rabbit serum looped peptides / Binding of a rabbit serum to linear peptides of protein N of SARS-CoV Urbani (Rabbit serum linear peptides) / Binding of a rabbit serum to looped/cyclic peptides of protein N of SARS-CoV Urbani (Rabbit serum looped peptides): unit not given here.

For LRLCAYCCNIVNVSL, in assay [1], the “Binding of serum 1a to linear peptides of protein E of SARS-CoV Urbani” value was 0.7, the “Binding of serum 1a to looped/cyclic peptides of protein E of SARS-CoV Urbani” value was 0.7, the “Binding of serum 1b to linear peptides of protein E of SARS-CoV Urbani” value was determined as 0.6 and the “Binding of serum 1b to looped/cyclic peptides of protein E of SARS-CoV Urbani” value was found to be 0.4. Also, in assay [1], the “Binding of serum 2 to linear peptides of protein E of SARS-CoV Urbani” value is on record as 0.4, the “Binding of serum 2 to looped/cyclic peptides of protein E of SARS-CoV Urbani” value is recorded as 0.5, the “Binding of serum 6 to linear peptides of protein E of SARS-CoV Urbani” value was determined as 0.6 and the “Binding of serum 6 to looped/cyclic peptides of protein E of SARS-CoV Urbani” value amounted to 0.4. For the same sequence, in assay [1], the “Binding of serum 37 to linear peptides of protein E of SARS-CoV Urbani” value stood at 0.7, the “Binding of serum 37 to looped/cyclic peptides of protein E of SARS-CoV Urbani” value amounted to 0.6, the “Binding of serum 62 to linear peptides of protein E of SARS-CoV Urbani” value came out at 0.7 and the “Binding of serum 62 to looped/cyclic peptides of protein E of SARS-CoV Urbani” value was 0.6. Besides, in assay [1], the “Binding of serum London to linear peptides of protein E of SARS-CoV Urbani” value is 0.5, the “Binding of serum London to looped/cyclic peptides of protein E of SARS-CoV Urbani” value turned out to be 0.4, the “Binding of serum SARS-green to linear peptides of protein E of SARS-CoV Urbani” value amounted to 0.3 and the “Binding of serum SARS-green to looped/cyclic peptides of protein E of SARS-CoV Urbani” value came out at 0.6. In addition, in assay [1], the “Binding of serum SARS-yellow to linear peptides of protein E of SARS-CoV Urbani” value worked out at 0.3 and the “Binding of serum SARS-yellow to looped/cyclic peptides of protein E of SARS-CoV Urbani” value came out at 0.6. Also, in assay [2], the “Binding of Control Serum Blood-Bank to Looped peptides” value is 0.6, the “Binding of Control serum Blood-bank to linear peptides” value is 0.8, the “Binding of Control serum LUMC to linear peptides” value was 0.4 and the “Binding of Control serum LUMC to looped peptides” value was 0.6. In addition, in assay [3], the “Binding of a rabbit serum to linear peptides” value is reported as 0.6 and the “Binding of a rabbit serum to looped peptides” value came to 0.2.
Regarding FLLVTLAILTALRLC, in assay [1], the “Binding of serum 1a to linear peptides of protein E of SARS-CoV Urbani” value amounted to 0.6, the “Binding of serum 1a to looped/cyclic peptides of protein E of SARS-CoV Urbani” value amounted to 0.3, the “Binding of serum 1b to linear peptides of protein E of SARS-CoV Urbani” value is recorded as 0.5 and the “Binding of serum 1b to looped/cyclic peptides of protein E of SARS-CoV Urbani” value amounted to 0.0. In assay [1], the “Binding of serum 2 to linear peptides of protein E of SARS-CoV Urbani” value was 0.6, the “Binding of serum 2 to looped/cyclic peptides of protein E of SARS-CoV Urbani” value is 0.5, the “Binding of serum 6 to linear peptides of protein E of SARS-CoV Urbani” value is listed as 0.3 and the “Binding of serum 6 to looped/cyclic peptides of protein E of SARS-CoV Urbani” value worked out at 1. In addition, in assay [1], the “Binding of serum 37 to linear peptides of protein E of SARS-CoV Urbani” value was determined as 0.3, the “Binding of serum 37 to looped/cyclic peptides of protein E of SARS-CoV Urbani” value stood at 0.6, the “Binding of serum 62 to linear peptides of protein E of SARS-CoV Urbani” value came out at 0.3 and the “Binding of serum 62 to looped/cyclic peptides of protein E of SARS-CoV Urbani” value stood at 0.6. In assay [1], the “Binding of serum London to linear peptides of protein E of SARS-CoV Urbani” value was 0.6, the “Binding of serum London to looped/cyclic peptides of protein E of SARS-CoV Urbani” value is 1.2, the “Binding of serum SARS-green to linear peptides of protein E of SARS-CoV Urbani” value is on record as 0.5 and the “Binding of serum SARS-green to looped/cyclic peptides of protein E of SARS-CoV Urbani” value is recorded as 0.3. In addition, in assay [1], the “Binding of serum SARS-yellow to linear peptides of protein E of SARS-CoV Urbani” value is given as 0.2 and the “Binding of serum SARS-yellow to looped/cyclic peptides of protein E of SARS-CoV Urbani” value was determined as 0.5. Besides, in assay [2], the “Binding of Control Serum Blood-Bank to Looped peptides” value stood at 0.5, the “Binding of Control serum Blood-bank to linear peptides” value is given as 0.6, the “Binding of Control serum LUMC to linear peptides” value was found to be 0.5 and the “Binding of Control serum LUMC to looped peptides” value was 0.1. Also, in assay [3], the “Binding of a rabbit serum to linear peptides” value was 0.1 and the “Binding of a rabbit serum to looped peptides” value is on record as 0.0.
In the case of VSEETGTLIVNSVLL, in assay [1], the “Binding of serum 1a to linear peptides of protein E of SARS-CoV Urbani” value is reported as 0.8, the “Binding of serum 1a to looped/cyclic peptides of protein E of SARS-CoV Urbani” value amounted to 0.7, the “Binding of serum 1b to linear peptides of protein E of SARS-CoV Urbani” value is listed as 0.5 and the “Binding of serum 1b to looped/cyclic peptides of protein E of SARS-CoV Urbani” value worked out at 0.6. In assay [1], the “Binding of serum 2 to linear peptides of protein E of SARS-CoV Urbani” value is reported as 0.3, the “Binding of serum 2 to looped/cyclic peptides of protein E of SARS-CoV Urbani” value turned out to be 0.6, the “Binding of serum 6 to linear peptides of protein E of SARS-CoV Urbani” value is 0.4 and the “Binding of serum 6 to looped/cyclic peptides of protein E of SARS-CoV Urbani” value came out at 0.5. For the same sequence, in assay [1], the “Binding of serum 37 to linear peptides of protein E of SARS-CoV Urbani” value turned out to be 0.5, the “Binding of serum 37 to looped/cyclic peptides of protein E of SARS-CoV Urbani” value stood at 0.7, the “Binding of serum 62 to linear peptides of protein E of SARS-CoV Urbani” value is on record as 0.7 and the “Binding of serum 62 to looped/cyclic peptides of protein E of SARS-CoV Urbani” value stood at 0.9. Also, in assay [1], the “Binding of serum London to linear peptides of protein E of SARS-CoV Urbani” value came to 0.5, the “Binding of serum London to looped/cyclic peptides of protein E of SARS-CoV Urbani” value worked out at 0.5, the “Binding of serum SARS-green to linear peptides of protein E of SARS-CoV Urbani” value is recorded as 0.4 and the “Binding of serum SARS-green to looped/cyclic peptides of protein E of SARS-CoV Urbani” value is recorded as 0.6. Besides, in assay [1], the “Binding of serum SARS-yellow to linear peptides of protein E of SARS-CoV Urbani” value worked out at 0.1 and the “Binding of serum SARS-yellow to looped/cyclic peptides of protein E of SARS-CoV Urbani” value is given as 0.7. Moreover, in assay [2], the “Binding of Control Serum Blood-Bank to Looped peptides” value is listed as 0.9, the “Binding of Control serum Blood-bank to linear peptides” value is reported as 0.8, the “Binding of Control serum LUMC to linear peptides” value is on record as 0.5 and the “Binding of Control serum LUMC to looped peptides” value is reported as 0.7. Besides, in assay [3], the “Binding of a rabbit serum to linear peptides” value turned out to be 0.4 and the “Binding of a rabbit serum to looped peptides” value is 0.1.
ALRLCAYCCNIVNVS: in assay [1], the “Binding of serum 1a to linear peptides of protein E of SARS-CoV Urbani” value is reported as 0.9, the “Binding of serum 1a to looped/cyclic peptides of protein E of SARS-CoV Urbani” value is given as 0.8, the “Binding of serum 1b to linear peptides of protein E of SARS-CoV Urbani” value worked out at 0.8 and the “Binding of serum 1b to looped/cyclic peptides of protein E of SARS-CoV Urbani” value is 0.8. In assay [1], the “Binding of serum 2 to linear peptides of protein E of SARS-CoV Urbani” value is recorded as 0.5, the “Binding of serum 2 to looped/cyclic peptides of protein E of SARS-CoV Urbani” value was found to be 0.7, the “Binding of serum 6 to linear peptides of protein E of SARS-CoV Urbani” value is 0.7 and the “Binding of serum 6 to looped/cyclic peptides of protein E of SARS-CoV Urbani” value is listed as 0.7. For the same sequence, in assay [1], the “Binding of serum 37 to linear peptides of protein E of SARS-CoV Urbani” value was 0.8, the “Binding of serum 37 to looped/cyclic peptides of protein E of SARS-CoV Urbani” value amounted to 0.7, the “Binding of serum 62 to linear peptides of protein E of SARS-CoV Urbani” value came to 0.7 and the “Binding of serum 62 to looped/cyclic peptides of protein E of SARS-CoV Urbani” value worked out at 0.8. Further, in assay [1], the “Binding of serum London to linear peptides of protein E of SARS-CoV Urbani” value worked out at 0.5, the “Binding of serum London to looped/cyclic peptides of protein E of SARS-CoV Urbani” value was 0.6, the “Binding of serum SARS-green to linear peptides of protein E of SARS-CoV Urbani” value was found to be 0.5 and the “Binding of serum SARS-green to looped/cyclic peptides of protein E of SARS-CoV Urbani” value was 0.6. Moreover, in assay [1], the “Binding of serum SARS-yellow to linear peptides of protein E of SARS-CoV Urbani” value amounted to 0.2 and the “Binding of serum SARS-yellow to looped/cyclic peptides of protein E of SARS-CoV Urbani” value is given as 0.7. Moreover, in assay [2], the “Binding of Control Serum Blood-Bank to Looped peptides” value turned out to be 1.1, the “Binding of Control serum Blood-bank to linear peptides” value was 0.8, the “Binding of Control serum LUMC to linear peptides” value is 0.5 and the “Binding of Control serum LUMC to looped peptides” value was 0.8. In assay [3], the “Binding of a rabbit serum to linear peptides” value worked out at 0.7 and the “Binding of a rabbit serum to looped peptides” value is reported as 0.4.
